From patent US12606556B2, “TYK-2 inhibitor” (BEIGENE, LTD., priority 2020, dated 2026)
pIC50: −log10 of the molar value. Like-named read-outs stand apart in the source and are kept apart here.

Key:
[1] = biological target: T1, JAK1-JH2 protein (aa 561-860, in-house) (Homo sapiens, UniProt P23458); experiment: JAK1-JH2 biochemical assay (HTRF, blocking of JAK1-JH2 protein with its probe); type: binding; settings: 1.17 nM recombinant JAK1-JH2, Probe 2
T1 construct: JAK1-JH2 protein (aa 561-860, in-house); made in house
How it was run: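 HTRF probe-displacement assay using recombinant human JAK1 pseudokinase domain (aa 561-860, 1.17 nM in pre-incubation step), pre-incubated 0.5 h at room temperature with 10-dose 5-fold compound series. Buffer: 20 mM HEPES pH 7.5, 10 mM MgCl2, 0.005% BSA, 2 mM DTT, 0.015% Brij-35. IC50 by four-parameter logistic fit of 615/665 nm ratio.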

[2] = biological target: T2, TYK2-JH2 (aa 575-869, in-house) protein (Homo sapiens, UniProt P29597); experiment: TYK2-JH2 biochemical assay (HTRF, blocking of TYK2-JH2 protein with its probe); type: binding; settings: for pIC50: HTRF, 0.2 nM recombinant TYK2-JH2, Probe 1; for Biochemical assay Selectivity fold (TYK2/JAK1): TYK2-JH2 vs JAK1-JH2 biochemical IC50
T2 construct: TYK2-JH2 (aa 575-869, in-house) protein; made in house
How it was run: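 Recombinant TYK2-JH2 (0.2 nM) pre-incubated with compounds (10 doses, 5-fold dilutions) 0.5 h at RT in HEPES pH 7.5 buffer with MgCl2, BSA, DTT, Brij-35; biotinylated probe (10 nM working solution, KD=10 nM) plus anti-6His Tb cryptate/streptavidin-XL665 added, 1 h RT. HTRF ratio read; IC50 from four-parameter logistic fit.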

[3] = system: JAK2, TYK2/p-STAT4 (Tyr693) activated by IL-12 in NK-92 cell line; experiment: IL-12-JAK2, TYK2/p-STAT4 (Tyr693) inhibition cellular assay; type: cell-based; settings: for pIC50: NK92, 0.5 h, read-out: Cellular assay pSTAT4/IL-12 IC50; for Cellular assay Selectivity fold (TYK2/JAK1): pSTAT4/IL-12 vs pSTAT3/IL-6 cellular IC50
How it was run: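 NK-92 cells were starved overnight without IL-2 and seeded at 5×10^4 per well in 1640 medium with 0.1% BSA. Lysate p-STAT4 (Tyr693) was measured by AlphaLISA SureFire, and IC50 was fitted with a 4-parameter logistic model.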

[4] = system: JAK1/p-STAT3(Tyr705) activated by IL-6 in TF-1 cell line; experiment: IL-6-JAK1/p-STAT3(Tyr705) inhibition cellular assay; type: cell-based; settings: Homo sapiens, read-out: Cellular assay pSTAT3/IL-6 IC50
[5] = NK-92 cells, IL-12 40 ng/ml, 30 min
[6] = 0.5 h, TF-1 cells, IL-6 50 ng/ml, 30 min

T2 sequence (P29597 575-869): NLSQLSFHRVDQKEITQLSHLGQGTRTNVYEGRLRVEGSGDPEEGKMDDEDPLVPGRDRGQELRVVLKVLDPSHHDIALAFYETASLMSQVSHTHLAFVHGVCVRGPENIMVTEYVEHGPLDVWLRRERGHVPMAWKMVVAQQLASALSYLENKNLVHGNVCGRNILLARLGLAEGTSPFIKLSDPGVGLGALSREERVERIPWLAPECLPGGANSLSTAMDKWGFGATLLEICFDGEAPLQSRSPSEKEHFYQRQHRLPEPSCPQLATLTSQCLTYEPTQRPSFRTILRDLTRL
T1 sequence (P23458 561-860): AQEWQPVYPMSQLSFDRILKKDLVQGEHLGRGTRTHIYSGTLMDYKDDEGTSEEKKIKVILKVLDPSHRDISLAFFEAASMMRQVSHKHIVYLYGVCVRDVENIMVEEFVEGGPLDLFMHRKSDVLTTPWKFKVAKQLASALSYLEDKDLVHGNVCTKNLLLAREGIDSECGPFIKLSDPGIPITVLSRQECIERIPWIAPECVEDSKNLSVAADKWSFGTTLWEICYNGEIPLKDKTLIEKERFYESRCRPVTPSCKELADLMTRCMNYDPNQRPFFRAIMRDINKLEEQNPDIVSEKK

SMILES | pIC50 [1] | pIC50 [2] | Biochemical assay Selectivity fold (TYK2/JAK1) [2] [fold] | pIC50 [3, 5] | pIC50 [4, 6] | Cellular assay Selectivity fold (TYK2/JAK1) [3] [fold] | pIC50 [3] | pIC50 ([4]; TF-1, 0.5 h)
CNC(=O)c1nnc(NC(=O)C2CC2)cc1Nc1nc2ccc(C3CN(S(C)(=O)=O)C3)cn2n1 [Example L1, 6-(cyclopropanecarboxamido)-N-methyl-4-((6-(1-(methylsulfonyl)azetidin-3-yl)-[1,2,4]triazolo[1,5-a]pyridin-2-yl)amino)pyridazine-3-carboxamide] | 8.43 | 10.03 | 40 | 7.29 | < 5.00 | >196 |  | 
CNC(=O)c1nnc(NC(=O)C2CC2)cc1Nc1nc2ccc(C3CN(C(C)=O)C3)cn2n1 [Example L2, 4-((6-(1-acetylazetidin-3-yl)-[1,2,4]triazolo[1,5-a]pyridin-2-yl)amino)-6-(cyclopropanecarboxamido)-N-methylpyridazine-3-carboxamide] | 8.59 | 10.09 | 32 | 6.56 | < 5.00 | >36 |  | 
CNC(=O)c1nnc(NC(=O)C2CC2)cc1Nc1nc2ccc(C3CN(C)C3)cn2n1 [Example M1, 6-(cyclopropanecarboxamido)-N-methyl-4-((6-(1-methylazetidin-3-yl)-[1,2,4]triazolo[1,5-a]pyridin-2-yl)amino)pyridazine-3-carboxamide] | 8.59 | 9.59 | 10 | 7.20 | < 5.00 | >158 |  | 
CNC(=O)c1nnc(NC(=O)C2CC2)cc1Nc1nc2ccc(C(=O)N3CCC3)cn2n1 [Example O1, 4-((6-(azetidine-1-carbonyl)-[1,2,4]triazolo[1,5-a]pyridin-2-yl)amino)-6-(cyclopropanecarboxamido)-N-methylpyridazine-3-carboxamide] | 8.97 | 9.77 | 6 |  |  | 28 | 6.77 | 5.31
CNC(=O)c1nnc(NC(=O)C2CC2)cc1Nc1nc2ccc(N3CC(C(=O)N4CCSC4)C3)cn2n1 [Example Q1, 6-(cyclopropanecarboxamido)-N-methyl-4-((6-(3-(thiazolidine-3-carbonyl)azetidin-1-yl)-[1,2,4]triazolo[1,5-a]pyridin-2-yl)amino)pyridazine-3-carboxamide] | 8.66 | 9.80 | 14 | 6.80 | < 5.00 | >64 |  | 

Further lines, with some results ahead:

pIC50 [1] | pIC50 [2] | Biochemical assay Selectivity fold (TYK2/JAK1) [2] [fold] | pIC50 [3, 5] | pIC50 [4, 6] | SMILES | Cellular assay Selectivity fold (TYK2/JAK1) [3] [fold] | pIC50 [3] | pIC50 ([4]; TF-1, 0.5 h)
8.82 | 10.14 | 21 | 6.90 | < 5.00 | CNC(=O)c1nnc(NC(=O)C2CC2)cc1Nc1nc2ccc(C3CN(C(=O)c4cccnc4)C3)cn2n1 [Example L3, 6-(cyclopropanecarboxamido)-N-methyl-4-((6-(1-nicotinoylazetidin-3-yl)-[1,2,4]triazolo[1,5-a]pyridin-2-yl)amino)pyridazine-3-carboxamide] | >79 |  | 
8.77 | 10.12 | 22 | 5.70 | < 5.00 | CNC(=O)c1nnc(NC(=O)C2CC2)cc1Nc1nc2ccc(C3CN(C(=O)c4ncn(C)n4)C3)cn2n1 [Example L5, 6-(cyclopropanecarboxamido)-N-methyl-4-((6-(1-(1-methyl-1H-1,2,4-triazole-3-carbonyl)azetidin-3-yl)-[1,2,4]triazolo[1,5-a]pyridin-2-yl)amino)pyridazine-3-carboxamide] | >5 |  | 
8.82 | 10.40 | 38 | 7.07 | < 5.00 | CNC(=O)c1nnc(NC(=O)C2CC2)cc1Nc1nc2ccc(C3CN(C(=O)N4CCOCC4)C3)cn2n1 [Example L6, 6-(cyclopropanecarboxamido)-N-methyl-4-((6-(1-(morpholine-4-carbonyl)azetidin-3-yl)-[1,2,4]triazolo[1,5-a]pyridin-2-yl)amino)pyridazine-3-carboxamide] | >117 |  | 
8.85 | 9.06 | 2 | 6.16 | < 5.00 | CNC(=O)c1nnc(NC(=O)C2CC2)cc1Nc1nc2c(OC)cc(N3CCC3)cn2n1 [Example N1, 4-((6-(azetidin-1-yl)-8-methoxy-[1,2,4]triazolo[1,5-a]pyridin-2-yl)amino)-6-(cyclopropanecarboxamido)-N-methylpyridazine-3-carboxamide] | >14 |  | 
8.89 | 10.20 | 20 | 7.85 | 5.02 | CNC(=O)c1nnc(NC(=O)C2CC2)cc1Nc1nc2c(F)cc(N3CCC3)cn2n1 [Example N2, 4-((6-(azetidin-1-yl)-8-fluoro-[1,2,4]triazolo [1,5-a]pyridin-2-yl)amino)-6-(cyclopropanecarboxamido)-N-methylpyridazine-3-carboxamide] | 688 |  | 
8.83 | 10.05 | 17 | 7.68 | 5.39 | CNC(=O)c1nnc(NC(=O)C2CC2)cc1Nc1nc2c(C)cc(N3CCC3)cn2n1 [Example N3] | 192 |  | 
8.85 | 10.41 | 36 | 7.54 | < 5.00 | CNC(=O)c1nnc(NC(=O)C2CC2)cc1Nc1nc2ccc(N3CCC(C4CN(C)C4)CC3)cn2n1 [Example P1, 6-(cyclopropanecarboxamido)-N-methyl-4-((6-(4-(1-methylazetidin-3-yl)piperidin-1-yl)-[1,2,4]triazolo[1,5-a]pyridin-2-yl)amino)pyridazine-3-carboxamide] | >344 |  | 
